Active and inactive are the calls of the source. No cut-off for these calls is given here.
What was measured:
[1] = Antitumor initiating activity in human Chang cells assessed as ratio of inhibition of cellular transformation in presence of NOR1 to compound and NOR1 at 350 nmol treated 1 min before NOR1 addition measured after 1 hr by light microscopy; format: functional
Mus musculus = test: Anticancer activity against peroxynitrite/TPA-induced skin cancer in ICR mouse assessed as delay in tumor promotion at 0.187 mg/day, po administered for 2 weeks; format: functional, organism-based
[2] = Anticancer activity against peroxynitrite/TPA-induced skin cancer in ICR mouse assessed as occurrence of papilloma at 0.187 mg/day, po administered for 2 weeks measured on week 11; format: functional
[3] = Anticancer activity against peroxynitrite/TPA-induced skin cancer in ICR mouse assessed as average number of papilloma per mouse at 0.187 mg/day, po administered for 2 weeks measured on week 20; format: functional

SMILES	Ratio [1]	further results
O=C(O)c1ccc(O)c(O)c1 [PROTOCATECHUIC ACID]	1.8	–
O=C(O)/C=C/c1ccc(O)cc1 [COUMARIC ACID]	1.9	–
COc1cc(/C=C2/C(=O)O[C@H](c3ccc(O)c(O)c3)[C@H]2c2cc(O)cc(O)c2)ccc1O [JEZONOLIDE]	2.1	–
COc1cc([C@@H]2Oc3c(OC)cc(CCCO)cc3[C@H]2CO)ccc1O [DIHYDRODEHYDRODICONIFERYL ALCOHOL]	1.8	–
O=C1c2c(O)cc(O)cc2O[C@H](c2ccc(O)c(O)c2)[C@H]1O [(+)-TAXIFOLIN]	2.5	–
Oc1cc(O)cc(/C=C/c2ccc3c(c2)O[C@H](c2ccc(O)c(O)c2)[C@@H](c2cc(O)cc(O)c2)O3)c1 [CASSIGAROL E]	2.1	–
O=C1C=C(/C=C/c2ccc(O)c(O)c2)[C@@H]2C(=O)[C@H]1[C@H](c1ccc(O)c(O)c1)[C@H]2c1cc(O)cc(O)c1 [JEZONODIONE]	2.2	–
CC(=O)Oc1cc(OC(C)=O)cc([C@H]2c3c(cc(OC(C)=O)c4c3O[C@H](c3ccc(OC(C)=O)c(OC(C)=O)c3)[C@@H](O)C4)O[C@@H]2c2ccc(OC(C)=O)c(OC(C)=O)c2)c1	1.9	–
CC(C)c1cc2c(cc1O)[C@@]1(C)CCC[C@@](C)(C(=O)O)[C@@H]1CC2	2	–
COc1cc([C@H]2Oc3cc(C(=O)O)ccc3O[C@@H]2CO)ccc1O [3-O-METHYL ISOAMERICANOIC ACID A]	1.7	–
COc1cc([C@H]2c3cc(O)c(OC)cc3C[C@@H](CO)[C@@H]2CO)ccc1O [ISOLARICIRESINOL]	2	–
CC(=O)Oc1ccc(/C=C/c2cc(OC(C)=O)cc3c2[C@H](c2cc(OC(C)=O)cc(OC(C)=O)c2)[C@@H](c2ccc(OC(C)=O)c(OC(C)=O)c2)O3)cc1	1.8	–
Oc1cc2c3c(c4cc(O)cc5c4c(c3c1)[C@@H](c1ccc(O)c(O)c1)O5)[C@@H](c1ccc(O)c(O)c1)O2 [JEZONOFOL]	2.3	–
O=Cc1ccc(O)c(O)c1 [PROTOCATECHUALDEHYDE]	1.8	–
COc1cc(/C=C/C(=O)CC(=O)/C=C/c2ccc(O)c(OC)c2)ccc1O [CURCUMIN]	2.1	–
O=C1C=C2O[C@H](c3ccc(O)c(O)c3)[C@@H](O)[C@@H]3c4c(O)cc(O)cc4[C@H](C23)[C@H](c2ccc(O)c(O)c2)C1 (stereo not given in full) [JEZONOCINOL C]	2.3	–
Oc1cc(O)cc([C@H]2c3c(/C=C/c4ccc(O)c(O)c4)cc(O)cc3O[C@@H]2c2ccc(O)c(O)c2)c1 [TRANS-SCIRPUSIN B]	2.2	–
CC(=O)Oc1cc(OC(C)=O)cc([C@H]2c3c(/C=C/c4ccc(OC(C)=O)c(OC(C)=O)c4)cc(OC(C)=O)cc3O[C@@H]2c2ccc(OC(C)=O)c(OC(C)=O)c2)c1	1.9	–
Oc1ccc(/C=C/c2cc(O)cc3c2[C@H](c2cc(O)cc(O)c2)[C@@H](c2ccc(O)c(O)c2)O3)cc1 [SCIRPUSIN A]	2	–
O=c1c(O)c(-c2ccc(O)c(O)c2)oc2cc(O)cc(O)c12 [QUERCETIN]	2.9	–
CC(=O)Oc1cc(OC(C)=O)cc([C@@H]2c3c(cc(OC(C)=O)c4c3O[C@H](c3ccc(OC(C)=O)c(OC(C)=O)c3)[C@@H](O)C4)O[C@H]2c2ccc(OC(C)=O)c(OC(C)=O)c2)c1	1.9	–
Oc1cc(O)cc([C@@H]2c3c(cc(O)c4c3O[C@H](c3ccc(O)c(O)c3)[C@@H](O)C4)O[C@H]2c2ccc(O)c(O)c2)c1 [JEZONOCINOL A]	2.7	–
Oc1cc(O)cc(/C=C/c2ccc(O)c(O)c2)c1 [PICEATANNOL]	2	–
CC(=O)Oc1cc(/C=C/c2ccc3c(c2)O[C@H](c2ccc(OC(C)=O)c(OC(C)=O)c2)[C@@H](c2cc(OC(C)=O)cc(OC(C)=O)c2)O3)cc(OC(C)=O)c1	1.8	–
CC(=O)Oc1cc(OC(C)=O)c2c(c1)[C@@H]1C3C(=CC(=O)C[C@H]1c1ccc(OC(C)=O)c(OC(C)=O)c1)O[C@H](c1ccc(OC(C)=O)c(OC(C)=O)c1)[C@@H](O)[C@H]23 (stereo not given in full)	1.8	–
COc1cc(C[C@H]2CO[C@H](c3ccc(O)c(OC)c3)[C@H]2CO)ccc1O [LARICIRESINOL]	2	–
Oc1cc(O)cc([C@H]2c3c(cc(O)c4c3O[C@H](c3ccc(O)c(O)c3)[C@@H](O)C4)O[C@@H]2c2ccc(O)c(O)c2)c1 [JEZONOCINOL B]	2.7	Activity (Mus musculus): Active; Activity [2]: 27%; Activity [3]: 3.1
